Measurements as given in patent publication US20210308134A1, “TREATMENT OF EGFR-MUTANT CANCER” (BLUEPRINT MEDICINES CORPORATION, priority 2018, published 2021).

How the values were obtained:
[1] = system: RET, ERK1/2 and AKT phosphorylation in PC9^CCDC6-RET cells; test: Western blot of downstream signaling; format: cell-based; settings: 6 hours
Protocol: FIG. 4A is a western blot for PC9^EV and PC9^CCDC6-RET cells treated with 100 nM afatinib, 1 μM osimertinib, Compound 1, or combinations thereof for 6 hours and harvested for western blotting with the antibodies.
FIG. 5A is a western blot for PC^9V and PC9^CCDC6-RET cells treated with 100 nM afatinib, 1 μM osimertinib, cabozanitinib, or combinations thereof for 6 hours and harvested for western blot analysis.
(§1) Afatinib, osimertinib, and cabozantinib were purchased from Selleck Chemicals and resuspended in DMSO. Phospho-EGFR (Y1068), EGFR, pBRAF (Ser445), RET, pAKT (Ser473), AKT, pMEK1/2 (Ser217/221), MEK1/2, pERK1/2 (Thr202/204), ERK1/2, and Actin antibodies were purchased from Cell Signaling Technology. pRET (Y1062) antibody was obtained from Abcam.

[2] = system: MGH134^CCDC6-RET cells (EGFR L858R/T790M)
Protocol: (§2) PC9 and MGH134 cells expressing the CCDC6-RET gene fusion or empty vector (EV) were treated with 1 μM osimertinib or vehicle (VEH) and cell proliferation determined over the course of five days (ratio compared to the beginning of treatment). Data shown are the mean±s.e.m. of three independent biological replicates.
(§3) Data are shown as a percentage of vehicle treated control and are the mean±s.e.m of three independent biological replicates.
(§4) For drug dose-response assays, cells were seeded into 96-well plates 24 hours before addition of drug. Cell proliferation was determined by CellTiter-Glo assay (Promega) 72-120 hours after adding drug, using standard protocols. For time-course experiments, multiple plates were seeded and drugged in identical fashion, and at the indicated time points, the plates were frozen at −80° C.; all plates in an experiment were developed with CellTiter-Glo simultaneously. Luminescence was measured with SpectraMax i3x Multi-Mode Microplate Reader (Molecular Devices).
(§5) To determine whether CCDC6-RET expression is sufficient to cause acquired drug resistance, CCDC6-RET fusion expressing cell line models were generated by lentiviral infection of PC9 (EGFR del19) and MGH134 (EGFR L858R/T790M) cells (FIG. 2).

[3] = system: MGH134 parental cells (EV); test: Cell proliferation (CellTiter-Glo); format: cell-based; settings: 1 μM osimertinib, over five days
[4] = system: RET, ERK1/2 and AKT phosphorylation in MGH134^CCDC6-RET cells; test: Western blot of downstream signaling; format: cell-based; settings: EGFR inhibitor alone (1 μM osimertinib), 6 hours
Protocol: FIG. 4B is a western blot for MGH134^EV and MGH134^CCDC6-RET cells treated with 1 μM osimertinib, cabozantinib, and Compound 1 or combinations thereof for 6 hours and harvested for western blotting with the indicated antibodies.
as §1

[5] = system: PC9 parental cells (EV); test: Cell proliferation (CellTiter-Glo); format: cell-based; settings: 1 μM osimertinib, over five days
[6] = system: PC9^CCDC6-RET cells (EGFR del19); test: Cell proliferation / viability (CellTiter-Glo); format: cell-based
Protocol: as §2, §3, §3, §4, §5

[7] = system: RET-driven models; settings: several RET-driven models; cited from earlier work
[8] = system: NSCLC patients with RET-alterations; settings: Subbiah et al. 2018; cited from earlier work
[9] = system: RET oncogenic mutants; settings: cellular systems; cited from earlier work
[10] = 1 μM osimertinib, over five days

Compound | RET, ERK1/2, and AKT phosphorylation ([1]; 100 nM afatinib or 1 μM osimertinib alone) | proliferation rate ([2]; 1 μM osimertinib vs vehicle) | cell proliferation [2, 10] | cell proliferation [3] | RET, ERK1/2, and AKT phosphorylation [4] | cell proliferation [5] | proliferation rate ([6]; 1 μM osimertinib vs vehicle) | cell proliferation [6, 10] | RET phosphorylation ([1]; Compound 1 alone) | downstream ERK or AKT phosphorylation ([1]; Compound 1 alone) | antitumor efficacy [7] | clinical responses [8] | off-target toxicity [8] | potency of inhibition of kinase activity [9]
C=CC(=O)Nc1cc(Nc2nccc(-c3cn(C)c4ccccc34)n2)c(OC)cc1N(C)CCN(C)C [osimertinib] | retained | decreased | continued to proliferate | net decrease in cell viability | retained | net decrease in cell viability | decreased | continued to proliferate |  |  |  |  |  | 
CO[C@]1(C(=O)N[C@@H](C)c2ccc(-n3cc(F)cn3)nc2)CC[C@H](c2nc(C)cc(Nc3cc(C)[nH]n3)n2)CC1 [Compound 1, (1S,4R)—N—((S)-1-(6-(4-fluoro-1H-pyrazol-1-yl)pyridine-3-yl)ethyl)-1-methoxy-4-(4-methyl-6-((5-methyl-1H-pyrazol-3-yl)amino)pyrimidin-2-yl)cyclohexanecarboxamide] |  |  |  |  |  |  |  |  | suppressed | did not decrease | dose-dependent antitumor efficacy | durable clinical responses | without notable off-target toxicity | low nanomolar potency
